These results are taken from PMC6099623, “Novel Thiazolidinone/Thiazolo[3,2-a]Benzimidazolone-Isatin Conjugates as Apoptotic Anti-proliferative Agents Towards Breast Cancer: One-Pot Synthesis and In Vitro Biological Evaluation” (Molecules : A Journal of Synthetic Chemistry and Natural …, 2018).

SMILES strings stand for the structures. Read-outs that look alike come from different tables or passages of the source.

The subject of data set [1] is MDA-MB-231 breast cancer cell line. The data set can be described thus: Crystal Violet antiproliferative assay, MDA-MB-231. It is filed as cell-based. Conditions: Homo sapiens, MDA-MB-231, 48 h, 48 h of incubation, mean ± S.D. of three separate experiments. The protocol: (§1) The in vitro antiproliferative activity of the newly synthesized conjugates 4a–n and 7a–d was evaluated against breast cancer MDA-MB-231 and MCF-7 cell lines, following the Crystal Violet (CV) cell cytotoxicity assay. Doxorubicin was included in this assay as a positive control, and Sunitinib was used as a reference drug.
(§2) Breast cancer cell lines MDA-MB-231 and MCF-7 cells were obtained from VACSERA Tissue Culture Unit. The cells were propagated in DMEM supplemented with 10% heat-inactivated fetal bovine serum, 1% L-glutamine (2.5 mM), HEPES (4-(2-hydroxyethyl)-1-piperazineethanesulfonic acid) buffer (10 mM) and 50 µg/mL gentamycin. All cells were maintained at 37 °C in a humidified atmosphere with 5% CO2 and were sub-cultured two times a week. Cytotoxicity was determined following the Crystal Violet (CV) cell cytotoxicity assay.
(§3) Test samples were dissolved in DMSO and kept at a stock concentration of 100 mM. Exponentially growing cells were collected using 0.25% Trypsin-EDTA and seeding was done at a density of 3000 cells/well in 96-well plates. After 24 h, the monolayer cultured cells were washed with sterile phosphate buffered saline (0.01 M pH 7.2) and simultaneously the cells were treated with […] from 10 different dilutions of the test compounds as well as Doxorubicin was […] Control wells were exposed to the same concentration of vehicle, DMSO (1%) used in the highest concentration of the test samples. Cell viability was >99% compared to untreated cells. The number of the surviving cells was determined by staining the cells with crystal violet followed by cell lysing using 33% glacial acetic acid. The absorbance was measured at 490 nm using ELISA reader (Thermo Fisher Scientific, Waltham, MA, USA) after gentle shaking. The absorbance values from untreated cells were considered as 100% proliferation.
(§4) The number of viable cells was determined using ELISA reader as previously mentioned and the percentage of viability was calculated as […] where ODt is the mean optical density of wells treated with the test sample and ODc is the mean optical density of untreated cells. The 50% inhibitory concentration (IC50) was estimated from graphic plots of the dose response curve for each conc. using GraphPad Prism software, Version 5 (San Diego, CA, USA). The data presented are the mean of at least three separate experiments.

In data set [2] the test system is MCF-7 breast cancer cell line. The data set can be described thus: Crystal Violet antiproliferative assay, MCF-7. It is filed as cell-based. Conditions: for IC50: Homo sapiens, MCF7, 48 h, Crystal Violet assay, 48 h of incubation, mean ± S.D. of three separate experiments. The protocol:
as §1, §2, §3, §4

Data set [3] has as its system lung fibroblast cell line (WI-38). As to the kind of experiment: Crystal violet cytotoxicity towards nontumorigenic WI-38. It is filed as cell-based. As to conditions: Homo sapiens, nontumorigenic cells, mean ± S.D. of three separate experiments. How it is done:
(§5) The cytotoxic activity of the active conjugates towards MDA-MB-231 cells (4c–e, 4g, 4l–n and 7a–d) was examined against nontumorigenic human lung fibroblast cell line (WI-38) and human breast epithelial cell line (MCF-10A) to investigate the potential safety of the newly prepared conjugates towards the normal cells. […] The results were expressed as IC50 values, and selectivity index was calculated (Table 2).
(§6) The cytotoxic activity of the active conjugates towards nontumorigenic human lung fibroblast cell line (WI-38) and human breast epithelial cell line (MCF-10A) was determined using Crystal violet (CV) cell cytotoxicity assay according to the previously published procedures.

For data set [4], the system named is breast epithelial cell line (MCF-10A). As to the kind of experiment: Crystal violet cytotoxicity towards nontumorigenic MCF-10A. It is filed as cell-based, human. Conditions: for IC50: Homo sapiens, MCF-10A, nontumorigenic cells, mean ± S.D. of three separate experiments; for Selectivity Index (MCF-10A/MDA-MB-231): ratio of IC50 MCF-10A to IC50 MDA-MB-231. The protocol: as §5, §6

The subject of the next data set is Bax. The data set can be described thus: ELISA immunoassay of Bax level in MDA-MB-231 cells. It is filed as cell-based. As to conditions: MDA-MB-231 cells treated at IC50 concentration; for Bax / Bax, number of folds of control: 48 h; for Bax/Bcl-2: control 3.9. The protocol:
(§7) In our study, we investigated the effect of conjugates 4m and 7b towards the level of the antiapoptotic Bcl2 and the level of the pro-apoptotic Bax, (Table 3, Figure 2).
(§8) The levels of the apoptotic markers (Bax, caspase-3) as well as the antiapoptotic marker Bcl-2 were determined using ELISA colorimetric kits per the manufacturer’s instructions, as reported earlier. MDA-MB-231 cells were cultured as a monolayer in T-25 flasks and were seeded to attain 30% confluency prior to treatment. […] At the end of treatment, cells were collected via trypsinization and centrifuged at 10,000 rpm. The pellet was then rinsed with PBS and lysed in RIPA lysis buffer at 4 °C for 45 min, then centrifuged at 14,000 rpm for 20 min to remove the cellular debris. Lysates were then collected and stored at −80 °C for later protein determination using Pierce BCA Protein Assay Kit (Pierce Biotechnology, Rockford, IL, USA) according to manufacturer’s recommendations.
(§9) The cell lysate was diluted 10 times, and 100 μL ([…]) was added to the wells of […] that were pre-coated with primary antibodies specific to Bax, Bcl-2 and caspase-3 proteins, respectively. A secondary biotin-linked antibody specific to the protein captured by the primary antibody was further added to bind the captured protein, forming a “sandwich” of specific antibodies around the desired protein in the cell lysate. The streptavidin-HRP complex was then used to bind the biotin-linked secondary antibody through its streptavidin portion. The HRP domain reacted with the added TMB substrate to form a colored product that measured at 450 nm by a plate reader (ChroMate-4300, Orlando, FL, USA) after the reaction was terminated via the addition of stop solution.
Background: An ELISA detects its analyte on a solid surface through an enzyme-linked reagent.

The next data set has as its system Bcl-2. The data set can be described thus: ELISA immunoassay of Bcl-2 level in MDA-MB-231 cells. It is filed as cell-based. As to conditions: MDA-MB-231 cells treated at IC50 concentration; for Bcl-2 / Bcl-2, number of folds of control: 48 h. How it is done:
as §7, §8, §9

The subject of another data set is caspase-3. As to the kind of experiment: ELISA immunoassay of active caspase-3 level in MDA-MB-231 cells. Conditions: MDA-MB-231 cells treated at IC50 concentration, 48 h. It is filed as cell-based.
Text: The down-regulation of the antiapoptotic Bcl-2 leads to an increase in the levels of free pro-apoptotic Bax which in turn accumulates at the inner mitochondrial membrane forming channels, altering membrane permeability. Accordingly, the apoptotic factors can leak into the cytoplasm resulting in the caspases cascade activation. As a key executioner protease, caspase-3 is activated by upstream initiator caspases as caspase-9 [48]. Thence, the elevated Bax/Bcl-2 ratios obtained herein triggered the examination of the protein expression levels of active caspases-3. Treatment of TNBC MDA-MB-231 cells with conjugates 4m and 7b led to a significant increase in the active caspase-3 levels by 6.4 and 4.9 folds, respectively, compared to control (Table 3, Figure 3).
as §8, §9

Data set [5] deals with MDA-MB-231 cells. As to the kind of experiment: Cell cycle analysis by DNA flow cytometry. Conditions: 24 h at IC50 concentration. It is filed as cell-based. How it is done:
The effect of hybrid 4m on cell cycle progression was evaluated in TNBC MDA-MB-231 cells after 24 h of treatment (Figure 4). Such impact was illustrated by DNA flow cytometric assay where MDA-MB-231 cells were treated with conjugate 4m at its IC50 concentration.
Subsequently, the treated cells were collected by centrifugation, fixed in ice-cold 70% (v/v) ethanol, washed with PBS, re-suspended with 100 μg/mL RNase, stained with 40 μg/mL PI, and analyzed by flow cytometry using FACS Calibur (Becton Dickinson, BD, Franklin Lakes, NJ, USA). The cell cycle distributions were calculated using CellQuest software 5.1 (Becton Dickinson).
Background: In flow cytometry, cells or beads pass a laser one at a time.

Data set [6] has as its system MDA-MB-231 cells. As to the kind of experiment: Annexin V-FITC/PI apoptosis assay. It is filed as cell-based. As to conditions: MDA-MB-231 at IC50 concentration. The protocol:
Annexin V-based flow cytometry assay elucidates either that cell death is achieved via programmed apoptosis or nonspecific necrosis.
Phosphatidylserine externalization was assayed using Annexin V-FITC/PI apoptosis detection kit (BD Biosciences, San Jose, CA, USA) according to the manufacturer’s instructions, as reported earlier. MDA-MB-231 cells were cultured to a monolayer then treated with conjugate 4m at its IC50 concentration as described earlier. Cells were then harvested via trypsinization, and rinsed twice in PBS followed by binding buffer. Moreover, cells were re-suspended in 100 μL of binding buffer with the addition of 1 μL of FITC-Annexin V (Becton Dickinson BD Pharmingen^TM, Heidelberg, Germany) followed by an incubation period of 30 min at 4 °C. Cells were then rinsed in binding buffer and resuspended in 150 μL of binding buffer with the addition of 1 μL of DAPI (1 μg/μL in PBS) (Invitrogen, Life Technologies, Darmstadt, Germany). Cells were then analyzed using the flow cytometer BD FACS Canto II (BD Biosciences, San Jose, CA, USA) and the results were interpreted with FlowJo7.6.4 software (Tree Star, Ashland, OR, USA).

Data set [7] deals with MCF-7 breast cancer cell line. More on the design: method as in PMID 28802125. Conditions: earlier work of the authors; cited from earlier work.

As to `Cc1ccc(N=C2SC(=C3C(=O)Nc4ccc(C)cc43)C(=O)N2c2ccc(C)cc2)cc1` [Compound 4m, 5-(5-Methyl-2-oxoindolin-3-ylidene)-3-(p-tolyl)-2-(p-tolylimino)thiazolidin-4-one], half-maximal inhibition in data set [1] (IC50) required 7.6 ± 0.5 µM. In addition, it took 8.4 ± 0.5 µM to reach half-maximal inhibition in data set [2] (IC50). Besides, the “Decreased activity against MCF-7 relative to doxorubicin” value in [2] (IC50 ratio to doxorubicin) stood at 2.2 fold. This molecule also returned an IC50 in data set [3] of 49.1 ± 1.9 µM. For the same molecule, in [4], the midpoint of inhibition, the IC50, lay at 73.1 ± 2.7 µM and the “Selectivity Index (MCF-10A/MDA-MB-231)” value was 9.6. Moreover, in the data set on Bax, the “Boost of Bax/Bcl-2 ratio compared to control” value is 33 folds; the Bax is given as 274.8 ± 13.5 pg/mg of Total Protein; the “Bax, number of folds of control” value was 11.1 folds of control; the Bax/Bcl-2 came to 130.5. For the same molecule, in the data set with Bcl-2, the “Downregulation of Bcl-2 expression level compared to control” value stood at 66.6%; the Bcl-2 was 2.1 ± 0.1 ng/mg of Total Protein; the “Bcl-2, number of folds of control” value is recorded as 0.33 folds of control. For the same molecule, in the data set on caspase-3, the Caspase-3 is on record as 0.19 ± 0.01 ng/mg of Total Protein and the “Caspase-3, number of folds of control” value was 6.4 folds of control. For the same molecule, in the data set with MDA-MB-231 cells [5], the “Arrest in G2-M phase compared to control” value came out at 2.5 folds and the “Rise in percentage of cells at Sub-G1 compared to control” value is listed as 4 folds. For the same molecule, the “Increase of annexin V-FITC-positive apoptotic cells compared with control” value in the data set with MDA-MB-231 cells [6] is “about 6 folds”. In the data set with MDA-MB-231 cells [6] (control 1.92%), the “Percent of annexin V-FITC-positive apoptotic cells, early and late (UR + LR)” value came to 11.43%.
In turn, `COc1ccc2c(c1)C(=c1sc3nc4ccccc4n3c1=O)C(=O)N2` [Compound 7b, 2-(5-Methoxy-2-oxoindolin-3-ylidene)benzo[4,5]imidazo[2,1-b]thiazol-3(2H)-one] yielded a melting point greater than 300 °C. Also, in [1], half-maximal inhibition (IC50) was put at 13.2 ± 1.7 µM. Besides, the IC50 in data set [2] is 21.7 ± 1.5 µM. In data set [3], this molecule returned an IC50 of 121 ± 6.9 µM. In [4], the half-maximal inhibitory concentration (IC50) came out at 184 ± 8 µM and the “Selectivity Index (MCF-10A/MDA-MB-231)” value came out at 13.9. In the data set on Bax, the “Boost of Bax/Bcl-2 ratio compared to control” value worked out at 16 folds; the Bax is on record as 180.0 ± 7.3 pg/mg of Total Protein; the “Bax, number of folds of control” value was 7.3 folds of control; the Bax/Bcl-2 is listed as 64.1. In the data set with Bcl-2, the “Downregulation of Bcl-2 expression level compared to control” value turned out to be 55.1%; the Bcl-2 is given as 2.8 ± 0.1 ng/mg of Total Protein; the “Bcl-2, number of folds of control” value is listed as 0.45 folds of control. In addition, in the data set with caspase-3, the Caspase-3 is listed as 0.15 ± 0.01 ng/mg of Total Protein and the “Caspase-3, number of folds of control” value is reported as 4.9 folds of control.
Turning to `NS(=O)(=O)c1ccc(/N=C2\NC(=O)/C(=C3/C(=O)Nc4ccc(Cl)cc43)S2)cc1` [compound VI], the IC50 in [7] was 3.96 ± 0.21 µM.

In general, IC50 refers to the concentration that gives 50% inhibition. One may read the melting point as the temperature, or range, at which the solid turns liquid.
